Measured values: PubChem BioAssay AID182 (DTP/NCI, 2004)
Inconclusive results and toxic doses are left out.

Tested on: BDF1 mice, P388/ADR leukemia ip, median survival T/C
Experiment: NCI In Vivo Anticancer Drug Screen. Data for tumor model P388 Leukemia resistant to Adriamycin; NSC 123127, Developed at Scr 06 and 41 (intraperitoneal) in B6D2F1 (BDF1) mice
Conditions: endpoint: median survival time, schedule: Q04DX003 (ip), higher = longer survival
Description: The antitumor activity of compounds was measured in mice bearing transplantable tumors. Survival or tumor size were measured and the results are expressed as the measurement made in the treated group (T) divided by the measurement made in the vehicle treated control group (C). The tumor model used in this assay is P388 Leukemia resistant to Adriamycin; NSC 123127, Developed at Scr 06 and 41 (intraperitoneal) in B6D2F1 (BDF1) mice

[1] = dose: 0.65 mg/kg/injection, vehicle: water
[2] = dose: 1.3 mg/kg/injection, vehicle: water

**Q.** `CC[C@H]1CN2CCc3cc(OC)c(OC)cc3[C@@H]2C[C@@H]1C[C@H]1NCCc2c1[nH]c1ccc(OC)cc21` was tested. Which T/C (dose: 10.8 mg/kg/injection, vehicle: acid diluted with saline) did it give?
**A.** 108 % of control

**Q.** What about the T/C (dose: 18.0 mg/kg/injection, vehicle: acid diluted with saline) of the same compound?
**A.** 107 % of control

**Q.** What about the T/C (dose: 30.0 mg/kg/injection, vehicle: acid diluted with saline) of the same compound?
**A.** 110 % of control

**Q.** For `COC(=O)[C@@H]1c2cc3c(c(O)c2[C@@H](OC2OC(C)C(OC)C(C)(OC)C2OC)C[C@]1(C)O)C(=O)c1c(O)cc2c(c1C3=O)O[C@H]1O[C@]2(C)[C@H](O)[C@@H](N(C)C)[C@@H]1O` (stereo partly specified), which T/C [1] is on record?
**A.** 89 % of control

**Q.** And the T/C (dose: 1.08 mg/kg/injection, vehicle: water)?
**A.** 96 % of control

**Q.** What about the T/C [2] of the same compound?
**A.** 103 % of control

**Q.** And the T/C (dose: 1.8 mg/kg/injection, vehicle: water)?
**A.** 96 % of control

**Q.** And the T/C (dose: 2.16 mg/kg/injection, vehicle: water)?
**A.** 91 % of control

**Q.** How did the T/C (dose: 13.0 mg/kg/injection, vehicle: saline + alcohol) turn out when `O=C1c2ccccc2C(=O)c2c(NCCNCCO)ccc(NCCNCCO)c21` was run?
**A.** 105 % of control

**Q.** What about the T/C (dose: 21.6 mg/kg/injection, vehicle: saline + alcohol) of the same compound?
**A.** 104 % of control

**Q.** What about the T/C (dose: 36.0 mg/kg/injection, vehicle: saline + alcohol) of the same compound?
**A.** 98 % of control

**Q.** `NC(C/[N+]([O-])=N/O)C(=O)O` (stereo unspecified) was tested. Which T/C (dose: 288.0 mg/kg/injection, vehicle: sodium bicarbonate) did it give?
**A.** 159 % of control

**Q.** And the T/C (dose: 480.0 mg/kg/injection, vehicle: sodium bicarbonate)?
**A.** 154 % of control

**Q.** What does the source list for `CC(=O)[C@]1(O)Cc2c(O)c3c(c(O)c2[C@@H](OC2CC(N)C(O)C(C)O2)C1)C(=O)c1c(O)cccc1C3=O` (stereo partly specified)?
**A.** T/C (dose: 0.32 mg/kg/injection, vehicle: water): 108 % of control; T/C (dose: 0.39 mg/kg/injection, vehicle: water): 118 % of control; T/C (dose: 0.54 mg/kg/injection, vehicle: water): 88 % of control; T/C [1]: 123 % of control

**Q.** With `COC1C(O)C(C)OC(OC2C(Oc3cccc4c(O)c5c(=O)oc6ccc(C)c7c(=O)oc(c34)c5c67)OC(C)C(O)C2O)C1O` (stereo unspecified) as the compound, how does the T/C (dose: 43.2 mg/kg/injection, vehicle: Klucel (hydroxypropylcellulose) (HPC)) read?
**A.** 87 % of control

**Q.** How did the T/C (dose: 216.0 micrograms/kg/injection, vehicle: saline + alcohol) turn out when `CO[C@H]1Nc2c(ccc(C)c2O)C(=O)N2C=C(/C=C/C(N)=O)C[C@@H]12` was run?
**A.** 154 % of control

**Q.** And the T/C (dose: 252.0 micrograms/kg/injection, vehicle: saline + alcohol)?
**A.** 194 % of control

**Q.** What about the T/C (dose: 360.0 micrograms/kg/injection, vehicle: saline + alcohol) of the same compound?
**A.** 176 % of control

**Q.** And the T/C (dose: 420.0 micrograms/kg/injection, vehicle: saline + alcohol)?
**A.** 176 % of control

**Q.** What about the T/C (dose: 600.0 micrograms/kg/injection, vehicle: saline + alcohol) of the same compound?
**A.** 90 % of control

**Q.** How did the T/C (dose: 0.86 mg/kg/injection, vehicle: water) turn out when `CCC1(O)CC(OC2CC(N(C)C)C(OC3CC4OC5CC(=O)C(C)OC5OC4C(C)O3)C(C)O2)c2c(cc3c(c2O)C(=O)c2c(O)ccc(O)c2C3=O)C1C(=O)OC` (stereo unspecified) was run?
**A.** 112 % of control

**Q.** What about the T/C [2] of the same compound?
**A.** 115 % of control

**Q.** What about the T/C (dose: 1.44 mg/kg/injection, vehicle: water) of the same compound?
**A.** 120 % of control

**Q.** And the T/C (dose: 2.4 mg/kg/injection, vehicle: water)?
**A.** 124 % of control

**Q.** What does the source list for `COc1cc(NS(C)(=O)=O)ccc1Nc1c2ccccc2nc2ccccc12`?
**A.** T/C (dose: 3.6 mg/kg/injection, vehicle: other): 123 % of control; T/C (dose: 5.4 mg/kg/injection, vehicle: clinical formulation): 106 % of control; T/C (dose: 9.0 mg/kg/injection, vehicle: clinical formulation): 114 % of control

**Q.** `COc1cc2cc3c4cc(OC)c(OC)cc4cc[n+]3c(C)c2cc1OC` (tested in a mixture with another compound) was tested. Which T/C (dose: 86.4 mg/kg/injection, vehicle: other) did it give?
**A.** 103 % of control

**Q.** What about the T/C (dose: 144.0 mg/kg/injection, vehicle: other) of the same compound?
**A.** 95 % of control

**Q.** Which results are given for `CCC1(O)CC2CN(CCc3c([nH]c4ccccc34)C(C(=O)OC)(c3cc4c(cc3OC)N(C)C3C(O)(C(N)=O)C(O)C5(CC)C=CCN6CCC43C65)C2)C1` (stereo unspecified) (tested in a mixture with another compound)?
**A.** T/C (dose: 0.65 mg/kg/injection, vehicle: saline): 107 % of control; T/C (dose: 1.08 mg/kg/injection, vehicle: saline): 111 % of control; T/C (dose: 1.8 mg/kg/injection, vehicle: saline): 101 % of control; T/C (dose: 3.0 mg/kg/injection, vehicle: saline): 86 % of control
